Reference: the NIST ThermoML archive (doi:10.1016/j.jct.2008.05.005)

Test: xn = mol fraction of the nth substance listed
Details: Liquid, Vibrating tube method

CCCCn1cc[n+](C)c1.F[B-](F)(F)F [1-butyl-3-methylimidazolium tetrafluoroborate] + CO
Details | mass density [kg/m3]
348.15 K, 20140 kPa, x1 = 0.9102 | 1177.87
348.15 K, 20370 kPa, x1 = 0.1302 | 949.49
348.15 K, 20420 kPa, x1 = 0.2626 | 1040.92
348.15 K, 20440 kPa, x1 = 0.0087 | 779.62
348.15 K, 25180 kPa, x1 = 0.0433 | 846.4
348.15 K, 25270 kPa, x1 = 0.1302 | 953.3
348.15 K, 25310 kPa, x1 = 0.2626 | 1044.36
348.15 K, 25310 kPa, x1 = 0.4988 | 1122.86
348.15 K, 25320 kPa, x1 = 0.0087 | 784.47
348.15 K, 25620 kPa, x1 = 0.7501 | 1164.19
348.15 K, 25620 kPa, x1 = 0.9102 | 1180.73
348.15 K, 30070 kPa, x1 = 0.7501 | 1166.56
348.15 K, 30090 kPa, x1 = 0.4988 | 1125.66
348.15 K, 30140 kPa, x1 = 0.9102 | 1183.03
348.15 K, 30150 kPa, x1 = 0.0087 | 789.02
348.15 K, 30160 kPa, x1 = 0.0433 | 850.67
348.15 K, 30210 kPa, x1 = 0.2626 | 1047.7
348.15 K, 30560 kPa, x1 = 0.1302 | 957.16
348.15 K, 35010 kPa, x1 = 0.7501 | 1169.13
348.15 K, 35080 kPa, x1 = 0.2626 | 1050.92
348.15 K, 35120 kPa, x1 = 0.0087 | 793.42
348.15 K, 35260 kPa, x1 = 0.4988 | 1128.6
348.15 K, 35420 kPa, x1 = 0.1302 | 960.46
348.15 K, 35740 kPa, x1 = 0.0433 | 855.14
348.15 K, 35740 kPa, x1 = 0.9102 | 1185.8
348.15 K, 39640 kPa, x1 = 0.0087 | 797.19
348.15 K, 39720 kPa, x1 = 0.1302 | 963.19
348.15 K, 39920 kPa, x1 = 0.2626 | 1054.02
348.15 K, 39920 kPa, x1 = 0.4988 | 1131.18
348.15 K, 39980 kPa, x1 = 0.9102 | 1187.84
348.15 K, 39990 kPa, x1 = 0.7501 | 1171.65
348.15 K, 40010 kPa, x1 = 0.0433 | 858.32
373.15 K, 620 kPa, x1 = 0.0433 | 797.86
373.15 K, 620 kPa, x1 = 0.9102 | 1149.53
373.15 K, 680 kPa, x1 = 0.0087 | 731.31
373.15 K, 840 kPa, x1 = 0.1302 | 910.67
373.15 K, 840 kPa, x1 = 0.7501 | 1131.82
373.15 K, 880 kPa, x1 = 0.4988 | 1088.22
373.15 K, 960 kPa, x1 = 0.2626 | 1006.13
373.15 K, 5010 kPa, x1 = 0.7501 | 1134.65
373.15 K, 5320 kPa, x1 = 0.2626 | 1009.96
373.15 K, 5410 kPa, x1 = 0.0087 | 738.04
373.15 K, 5410 kPa, x1 = 0.9102 | 1152.54
373.15 K, 5450 kPa, x1 = 0.1302 | 915.31
373.15 K, 5470 kPa, x1 = 0.4988 | 1091.64
373.15 K, 5500 kPa, x1 = 0.0433 | 804.09
373.15 K, 10030 kPa, x1 = 0.9102 | 1155.38
373.15 K, 10070 kPa, x1 = 0.2626 | 1014.1
373.15 K, 10080 kPa, x1 = 0.4988 | 1095
373.15 K, 10280 kPa, x1 = 0.1302 | 919.98
373.15 K, 10320 kPa, x1 = 0.7501 | 1138.17
373.15 K, 10390 kPa, x1 = 0.0087 | 744.76
373.15 K, 10780 kPa, x1 = 0.0433 | 810.45
373.15 K, 15090 kPa, x1 = 0.7501 | 1141.24
373.15 K, 15170 kPa, x1 = 0.1302 | 924.53
373.15 K, 15230 kPa, x1 = 0.2626 | 1018.44
373.15 K, 15390 kPa, x1 = 0.0433 | 815.67
373.15 K, 15430 kPa, x1 = 0.4988 | 1098.81
373.15 K, 15450 kPa, x1 = 0.0087 | 751.2
373.15 K, 15720 kPa, x1 = 0.9102 | 1158.79
373.15 K, 20090 kPa, x1 = 0.2626 | 1022.37
373.15 K, 20210 kPa, x1 = 0.0433 | 820.81
373.15 K, 20420 kPa, x1 = 0.1302 | 929.19
373.15 K, 20420 kPa, x1 = 0.7501 | 1144.57
373.15 K, 20580 kPa, x1 = 0.0087 | 757.35
373.15 K, 20610 kPa, x1 = 0.4988 | 1102.41
373.15 K, 20610 kPa, x1 = 0.9102 | 1161.64
373.15 K, 24990 kPa, x1 = 0.0433 | 825.57
373.15 K, 25080 kPa, x1 = 0.7501 | 1147.41
373.15 K, 25330 kPa, x1 = 0.1302 | 933.36
373.15 K, 25340 kPa, x1 = 0.2626 | 1026.45
373.15 K, 25340 kPa, x1 = 0.4988 | 1105.63
373.15 K, 25580 kPa, x1 = 0.0087 | 762.96
373.15 K, 25830 kPa, x1 = 0.9102 | 1164.62
373.15 K, 29810 kPa, x1 = 0.1302 | 936.98
373.15 K, 30080 kPa, x1 = 0.2626 | 1029.97
373.15 K, 30080 kPa, x1 = 0.4988 | 1108.78
373.15 K, 30140 kPa, x1 = 0.9102 | 1167.01
373.15 K, 30410 kPa, x1 = 0.7501 | 1150.55
373.15 K, 30550 kPa, x1 = 0.0433 | 830.7
373.15 K, 30780 kPa, x1 = 0.0087 | 768.4
373.15 K, 34970 kPa, x1 = 0.0433 | 834.46
373.15 K, 35040 kPa, x1 = 0.9102 | 1169.67
373.15 K, 35210 kPa, x1 = 0.7501 | 1153.29
373.15 K, 35560 kPa, x1 = 0.1302 | 941.4
373.15 K, 35620 kPa, x1 = 0.2626 | 1033.9
373.15 K, 35640 kPa, x1 = 0.4988 | 1112.39
373.15 K, 35780 kPa, x1 = 0.0087 | 773.25
373.15 K, 39510 kPa, x1 = 0.0087 | 776.62
373.15 K, 39910 kPa, x1 = 0.0433 | 838.34
373.15 K, 39940 kPa, x1 = 0.2626 | 1036.83
373.15 K, 39940 kPa, x1 = 0.9102 | 1172.26
373.15 K, 39970 kPa, x1 = 0.4988 | 1115.12
373.15 K, 39980 kPa, x1 = 0.7501 | 1155.94
373.15 K, 40050 kPa, x1 = 0.1302 | 944.67
398.15 K, 870 kPa, x1 = 0.0087 | 702.45
398.15 K, 980 kPa, x1 = 0.7501 | 1114.32
398.15 K, 990 kPa, x1 = 0.4988 | 1069.4
398.15 K, 1020 kPa, x1 = 0.2626 | 985.77
398.15 K, 1030 kPa, x1 = 0.9102 | 1132.67
398.15 K, 1250 kPa, x1 = 0.0433 | 772.27
398.15 K, 2310 kPa, x1 = 0.1302 | 891.44
398.15 K, 5010 kPa, x1 = 0.0087 | 709.59
398.15 K, 5060 kPa, x1 = 0.0433 | 778.08
398.15 K, 5060 kPa, x1 = 0.2626 | 989.1
398.15 K, 5080 kPa, x1 = 0.4988 | 1072.6
398.15 K, 5120 kPa, x1 = 0.1302 | 894.51
398.15 K, 5310 kPa, x1 = 0.7501 | 1117.54
398.15 K, 5410 kPa, x1 = 0.9102 | 1135.7
398.15 K, 10030 kPa, x1 = 0.0087 | 717.77
398.15 K, 10030 kPa, x1 = 0.1302 | 899.7
398.15 K, 10120 kPa, x1 = 0.2626 | 994.1
398.15 K, 10250 kPa, x1 = 0.9102 | 1138.98
398.15 K, 10410 kPa, x1 = 0.0433 | 785.75
398.15 K, 10410 kPa, x1 = 0.7501 | 1121.25
398.15 K, 10470 kPa, x1 = 0.4988 | 1077.23
398.15 K, 14950 kPa, x1 = 0.0087 | 725.27
398.15 K, 15020 kPa, x1 = 0.1302 | 904.75
398.15 K, 15070 kPa, x1 = 0.0433 | 791.97
398.15 K, 15210 kPa, x1 = 0.4988 | 1081.15
398.15 K, 15360 kPa, x1 = 0.9102 | 1142.35
398.15 K, 15450 kPa, x1 = 0.2626 | 999.14
398.15 K, 15960 kPa, x1 = 0.7501 | 1125.17
398.15 K, 20030 kPa, x1 = 0.4988 | 1085
398.15 K, 20060 kPa, x1 = 0.0087 | 732.52
398.15 K, 20060 kPa, x1 = 0.2626 | 1003.34
398.15 K, 20100 kPa, x1 = 0.1302 | 909.67
398.15 K, 20310 kPa, x1 = 0.0433 | 798.45
398.15 K, 20340 kPa, x1 = 0.7501 | 1128.18
398.15 K, 20470 kPa, x1 = 0.9102 | 1145.63
398.15 K, 24980 kPa, x1 = 0.0087 | 738.99
398.15 K, 25010 kPa, x1 = 0.9102 | 1148.46
398.15 K, 25060 kPa, x1 = 0.1302 | 914.25
398.15 K, 25080 kPa, x1 = 0.0433 | 803.88
398.15 K, 25320 kPa, x1 = 0.4988 | 1089.05
398.15 K, 25620 kPa, x1 = 0.2626 | 1008.18
398.15 K, 25720 kPa, x1 = 0.7501 | 1131.78
398.15 K, 29970 kPa, x1 = 0.1302 | 918.57
398.15 K, 30080 kPa, x1 = 0.7501 | 1134.62
398.15 K, 30090 kPa, x1 = 0.4988 | 1092.57
398.15 K, 30120 kPa, x1 = 0.0087 | 745.21
398.15 K, 30200 kPa, x1 = 0.0433 | 809.19
398.15 K, 30740 kPa, x1 = 0.2626 | 1012.44
398.15 K, 30890 kPa, x1 = 0.9102 | 1152.03
398.15 K, 34960 kPa, x1 = 0.0433 | 813.67
398.15 K, 35040 kPa, x1 = 0.4988 | 1096.06
398.15 K, 35060 kPa, x1 = 0.1302 | 922.81
398.15 K, 35210 kPa, x1 = 0.7501 | 1137.87
398.15 K, 35280 kPa, x1 = 0.9102 | 1154.61
398.15 K, 35310 kPa, x1 = 0.0087 | 750.93
398.15 K, 35620 kPa, x1 = 0.2626 | 1016.31
398.15 K, 39740 kPa, x1 = 0.1302 | 926.51
398.15 K, 39920 kPa, x1 = 0.9102 | 1157.27
398.15 K, 39940 kPa, x1 = 0.0433 | 817.88
398.15 K, 39940 kPa, x1 = 0.7501 | 1140.77
398.15 K, 39960 kPa, x1 = 0.4988 | 1099.38
398.15 K, 39970 kPa, x1 = 0.0087 | 755.59
398.15 K, 39980 kPa, x1 = 0.2626 | 1019.62
